Laboratory results taken from patent US8017612B2, “Piperazine compound and use thereof as a HCV polymerase inhibitor” (priority 2006, dated 2011).

Experiments:
[1] = molecular target: T1, HCV polymerase (NS5B) type 1b (Hepatitis C virus genotype 1b, UniProt P26663); test: Assay of enzyme (HCV polymerase) inhibitory activity, type 1b enzyme; type: biochemical, HCV BK strain (type 1b); settings: HCV polymerase inhibitory activity (IC50), 1b, type 1b enzyme 0.5 μg/ml, 25° C., 60 min
T1 construct: a region encoding NS5B (J Virol 1991 March, 65(3), 1105-13, 544 amino acids after deletion of 47 amino acids on the C-terminal); 6xHis (C); made in house; host or cells: Escherichia coli
Method in brief: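 Rxn: NS5B 1b (BK, ΔC47, His6) 0.5 μg/ml; substrate RNA 5 μg/ml; ATP/GTP/CTP 50 μM, UTP 2 μM + [5,6-3H]UTP; 20 mM Tris pH 7.5, 5 mM MgCl2, 50 mM NaCl, 1 mM EDTA/DTT. 25 °C, 60 min. Stop with TCA/pyrophosphate, filter, scintillation count; IC50 vs. untreated.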

[2] = molecular target: T2, HCV polymerase (NS5B) type 1a (Hepatitis C virus genotype 1a, UniProt P26664); test: Assay of enzyme (HCV polymerase) inhibitory activity, type 1a enzyme; type: biochemical, HCV type 1a (cloned from the blood of patients); settings: HCV polymerase inhibitory activity (IC50), 1a, type 1a enzyme 1.5 μg/ml, 25° C., 60 min
T2 construct: made in house; host or cells: Escherichia coli (by the 'similar method' of the 1b enzyme)
Method in brief: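 NS5B Δ47 C-term His6 (type 1a, 1.5 μg/ml); substrate RNA 5 μg/ml; ATP/GTP/CTP 50 μM, UTP 2 μM + [5,6-3H]UTP; Tris pH 7.5, MgCl2 5 mM; 25° C, 60 min. TCA/pyrophosphate stop, GF/B filter, scintillation. IC50 vs no-compound control.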

| SMILES | IC50 [1] [nM] | IC50 [2] [nM] |
| --- | --- | --- |
| CCCN(CCC)CCC(=O)N1CCN(S(=O)(=O)c2ccc(I)cc2)C(C(=O)NCc2ccc(N(C)C)cc2)C1 (centres unmarked) [Example 114, 4-(3-dipropylamino-propionyl)-1-(4-iodo-benzenesulfonyl)-piperazine-2-carboxylic acid 4-dimethylamino-benzylamide] | > 1000 | > 1000 |
| Cc1csc(N2CCN(S(=O)(=O)c3ccc(C(C)C)cc3)C(C(=O)NCc3ccc(C(F)(F)F)cc3)C2)n1 (centres unmarked) [Example 115, 1-(4-isopropyl-benzenesulfonyl)-4-(4-methyl-thiazol-2-yl)-piperazine-2-carboxylic acid 4-trifluoromethyl-benzylamide] | > 1000 | > 1000 |
| CC(=O)N1CCN(S(=O)(=O)c2ccc(C(C)C)cc2)C(C(=O)NCc2ccc(-c3ccc(Cl)cc3)cc2)C1 (centres unmarked) [Example 116, 4-acetyl-1-(4-isopropyl-benzenesulfonyl)-piperazine-2-carboxylic acid (4′-chloro-biphenyl-4-ylmethyl)-amide] | > 1000 | > 1000 |
| CC(=O)N1CCN(S(=O)(=O)c2ccc(C(C)C)cc2)C(C(=O)NCc2ccc(C(C)C)cc2)C1 (centres unmarked) [Example 117, 4-acetyl-1-(4-isopropyl-benzenesulfonyl)-piperazine-2-carboxylic acid 4-isopropyl-benzylamide] | 100 to 1000 | 100 to 1000 |
| CC(=O)N1CCN(S(=O)(=O)c2ccc(C(C)C)cc2)C(C(=O)NCCc2ccccc2)C1 (centres unmarked) [Example 118, 4-acetyl-1-(4-isopropyl-benzenesulfonyl)-piperazine-2-carboxylic acid phenethyl-amide] | > 1000 | > 1000 |
| CC(=O)N1CCN(S(=O)(=O)c2ccc(C(C)C)cc2)C(C(=O)NCc2cccc(C(F)(F)F)c2)C1 (centres unmarked) [Example 119, 4-acetyl-1-(4-isopropyl-benzenesulfonyl)-piperazine-2-carboxylic acid 3-trifluoromethyl-benzylamide] | > 1000 | > 1000 |
| CC(=O)N1CCN(S(=O)(=O)c2ccc(C(C)C)cc2)C(C(=O)NCc2ccccc2C(F)(F)F)C1 (centres unmarked) [Example 120, 4-acetyl-1-(4-isopropyl-benzenesulfonyl)-piperazine-2-carboxylic acid 2-trifluoromethyl-benzylamide] | > 1000 | > 1000 |
| CC(=O)N1CCN(S(=O)(=O)c2ccc(C(C)C)cc2)C(C(=O)NCc2cccc(OC(F)(F)F)c2)C1 (centres unmarked) [Example 121, 4-acetyl-1-(4-isopropyl-benzenesulfonyl)-piperazine-2-carboxylic acid 3-trifluoromethoxy-benzylamide] | > 1000 | > 1000 |
| CN(C)c1ccc(CNC(=O)C2CN(C(=O)CC3CCCCC3)CCN2S(=O)(=O)c2ccc(I)cc2)cc1 (centres unmarked) [Example 122, 4-(2-cyclohexyl-acetyl)-1-(4-iodo-benzenesulfonyl)-piperazine-2-carboxylic acid 4-dimethylamino-benzylamide] | > 1000 | > 1000 |
| CC(C)c1ccc(S(=O)(=O)N2CCN(C(=O)c3ccccc3)CC2C(=O)NCc2ccc(C(F)(F)F)cc2)cc1 (centres unmarked) [Example 123, 4-benzoyl-1-(4-isopropyl-benzenesulfonyl)-piperazine-2-carboxylic acid 4-trifluoromethyl-benzylamide] | > 1000 | > 1000 |
| CC(C)c1ccc(S(=O)(=O)N2CCN(C(=O)Cc3ccccc3)CC2C(=O)NCc2ccc(C(F)(F)F)cc2)cc1 (centres unmarked) [Example 124, 1-(4-isopropyl-benzenesulfonyl)-4-phenylacetyl-piperazine-2-carboxylic acid 4-trifluoromethyl-benzylamide] | > 1000 | > 1000 |
| CC(C)c1ccc(S(=O)(=O)N2CCN(C(=O)COc3ccccc3)CC2C(=O)NCc2ccc(C(F)(F)F)cc2)cc1 (centres unmarked) [Example 125, 1-(4-isopropyl-benzenesulfonyl)-4-(2-phenoxy-acetyl)-piperazine-2-carboxylic acid 4-trifluoromethyl-benzylamide] | > 1000 | > 1000 |
| CC(=O)N1CCN(S(=O)(=O)c2ccc(C(C)C)cc2)C(C(=O)NCc2ccc(Oc3ccccc3)cc2)C1 (centres unmarked) [Example 126, 4-acetyl-1-(4-isopropyl-benzenesulfonyl)-piperazine-2-carboxylic acid 4-phenoxy-benzylamide] | > 1000 | > 1000 |
| CC(=O)N1CCN(S(=O)(=O)c2ccc(C(C)C)cc2)C(C(=O)NCc2ccc(OC(C)C)cc2)C1 (centres unmarked) [Example 127, 4-acetyl-1-(4-isopropyl-benzenesulfonyl)-piperazine-2-carboxylic acid 4-isopropoxy-benzylamide] | > 1000 | > 1000 |
| CC(=O)N1CCN(S(=O)(=O)c2ccc(C(C)C)cc2)C(C(=O)NCc2cccc(N(C)C)c2)C1 (centres unmarked) [Example 128, 4-acetyl-1-(4-isopropyl-benzenesulfonyl)-piperazine-2-carboxylic acid 3-dimethylamino-benzylamide] | > 1000 | > 1000 |
| CC(=O)N1CCN(S(=O)(=O)c2ccc(C(C)C)cc2)C(C(=O)NCc2ccccc2N(C)C)C1 (centres unmarked) [Example 129, 4-acetyl-1-(4-isopropyl-benzenesulfonyl)-piperazine-2-carboxylic acid 2-dimethylamino-benzylamide] | > 1000 | > 1000 |
| CCC(=O)N1CCN(S(=O)(=O)c2ccc(I)cc2)C(C(=O)NCc2ccc(N(C)C)cc2)C1 (centres unmarked) [Example 130, 1-(4-iodo-benzenesulfonyl)-4-propionyl-piperazine-2-carboxylic acid 4-dimethylamino-benzylamide] | > 1000 | > 1000 |
| CN(C)c1ccc(CNC(=O)C2CN(C(=O)Cc3ccccc3)CCN2S(=O)(=O)c2ccc(I)cc2)cc1 (centres unmarked) [Example 131, 1-(4-iodo-benzenesulfonyl)-4-phenylacetyl-piperazine-2-carboxylic acid 4-dimethylamino-benzylamide] | 100 to 1000 | > 1000 |
| CC(=O)N1CCN(S(=O)(=O)c2ccc(CO)cc2)C(C(=O)NCc2ccc(C(F)(F)F)cc2)C1 (centres unmarked) [Example 132, 4-acetyl-1-(4-hydroxymethyl-benzenesulfonyl)-piperazine-2-carboxylic acid 4-trifluoromethyl-benzylamide] | > 1000 | > 1000 |
| CC(C)c1ccc(S(=O)(=O)N2CCN(C3=NCCO3)CC2C(=O)NCc2ccc(C(F)(F)F)cc2)cc1 (centres unmarked) [Example 133, 4-(4,5-dihydro-oxazol-2-yl)-1-(4-isopropyl-benzenesulfonyl)-piperazine-2-carboxylic acid 4-trifluoromethyl-benzylamide] | > 1000 | > 1000 |
| CC(C)c1ccc(S(=O)(=O)N2CCN(c3nc4ccccc4s3)CC2C(=O)NCc2ccc(C(F)(F)F)cc2)cc1 (centres unmarked) [Example 134, 4-benzothiazol-2-yl-1-(4-isopropyl-benzenesulfonyl)-piperazine-2-carboxylic acid 4-trifluoromethyl-benzylamide] | > 1000 | > 1000 |
| CC(C)c1ccc(S(=O)(=O)N2CCN(c3nc(-c4ccccc4)cs3)CC2C(=O)NCc2ccc(C(F)(F)F)cc2)cc1 (centres unmarked) [Example 135, 1-(4-isopropyl-benzenesulfonyl)-4-(4-phenyl-thiazol-2-yl)-piperazine-2-carboxylic acid 4-trifluoromethyl-benzylamide] | > 1000 | > 1000 |
| COc1ccc(S(=O)(=O)N2CCN(C(C)=O)CC2C(=O)NCc2ccc(C(F)(F)F)cc2)cc1OC (centres unmarked) [Example 136, 4-acetyl-1-(3,4-dimethoxy-benzenesulfonyl)-piperazine-2-carboxylic acid 4-trifluoromethyl-benzylamide] | > 1000 | > 1000 |
| CC(=O)N1CCN(S(=O)(=O)c2ccc(C(C)C)cc2)[C@@H](C(=O)NCc2ccc(C(C)C)cc2)C1 [Example 137, (R)-4-acetyl-1-(4-isopropyl-benzenesulfonyl)-piperazine-2-carboxylic acid 4-isopropyl-benzylamide] | < 100 | < 100 |
| CC(=O)N1CCN(S(=O)(=O)c2ccc(C(C)C)cc2)[C@@H](C(=O)NCCc2ccc(Cl)cc2)C1 [Example 138, (R)-4-acetyl-1-(4-isopropyl-benzenesulfonyl)-piperazine-2-carboxylic acid [2-(4-chloro-phenyl)-ethyl]-amide] | > 1000 | > 1000 |
| CC(=O)N1CCN(S(=O)(=O)c2ccc(C(C)C)cc2)C(C(=O)NCc2ccc(C3CCCC3)cc2)C1 (centres unmarked) [Example 139, 4-acetyl-1-(4-isopropyl-benzenesulfonyl)-piperazine-2-carboxylic acid 4-cyclopentyl-benzylamide] | 100 to 1000 | 100 to 1000 |
| CCCC(CCC)c1ccc(CNC(=O)C2CN(C(C)=O)CCN2S(=O)(=O)c2ccc(C(C)C)cc2)cc1 (centres unmarked) [Example 140, 4-acetyl-1-(4-isopropyl-benzenesulfonyl)-piperazine-2-carboxylic acid 4-(1-propyl-butyl)-benzylamide] | > 1000 | > 1000 |
| CC(=O)N1CCN(S(=O)(=O)c2ccc(C(C)C)cc2)C(C(=O)NCc2ccc(-c3cccc(Cl)c3)cc2)C1 (centres unmarked) [Example 141, 4-acetyl-1-(4-isopropyl-benzenesulfonyl)-piperazine-2-carboxylic acid (3′-chloro-biphenyl-4-ylmethyl)-amide] | > 1000 | > 1000 |
